Measurements reported in ChEMBL document CHEMBL1142222, “A-803467, a potent and selective Nav1.8 sodium channel blocker, attenuates neuropathic and inflammatory pain in the rat” (Proc Natl Acad Sci U S A, 2007).
Calls of active or inactive are those of the source. The calls are words filed in the database; no cut-off is given here.

Experiments:
Rattus norvegicus [1] = assay: Analgesic activity in rat chronic constriction injury model of cold allodynic neuropathic pain at 100 mg/kg, ip; type: functional; conditions: route intraperitoneal
[2] = Displacement of [3H]PACAP1-27 from PACAP PAC1 receptor
[3] = biological target: 5-hydroxytryptamine receptor 7 (Homo sapiens, UniProt P34969); assay: Displacement of [3H]LSD from 5HT7 receptor
Sequence of 5-hydroxytryptamine receptor 7 (P34969 whole entry): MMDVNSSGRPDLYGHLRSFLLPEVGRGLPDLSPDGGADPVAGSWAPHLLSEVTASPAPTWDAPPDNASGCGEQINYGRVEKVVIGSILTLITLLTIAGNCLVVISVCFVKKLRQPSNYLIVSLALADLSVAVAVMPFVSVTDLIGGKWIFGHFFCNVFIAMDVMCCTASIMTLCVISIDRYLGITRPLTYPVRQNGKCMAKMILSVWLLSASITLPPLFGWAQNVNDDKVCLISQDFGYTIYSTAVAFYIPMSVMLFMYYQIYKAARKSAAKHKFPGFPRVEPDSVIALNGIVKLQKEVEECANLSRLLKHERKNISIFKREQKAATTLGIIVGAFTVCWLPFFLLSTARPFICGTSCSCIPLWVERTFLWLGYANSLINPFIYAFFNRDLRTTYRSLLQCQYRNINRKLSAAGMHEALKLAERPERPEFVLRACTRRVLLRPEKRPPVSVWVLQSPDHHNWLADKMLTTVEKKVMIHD

[4] = biological target: Voltage-dependent N-type calcium channel subunit alpha-1B (Homo sapiens, UniProt Q00975); assay: Inhibition of Cav2.2 channel
[5] = biological target: 5-hydroxytryptamine receptor 1B (Homo sapiens, UniProt P28222); assay: Displacement of [3H]CYP from 5HT1B receptor
Rattus norvegicus [6] = assay: Analgesic activity in rat L5/L6 spinal nerve ligation-induced neuropathic pain model at 100 mg/kg, ip; type: functional; conditions: route intraperitoneal
[7] = Cmax in rat at 10 mg/kg, po; type: ADME, organism-based; design: dose 10 mg/kg, route oral; conditions: in vivo
[8] = biological target: 5-hydroxytryptamine receptor 3A (Homo sapiens, UniProt P46098); assay: Displacement of [3H]BRL43694 from 5HT3 receptor
[9] = biological target: T1, Sodium channel protein type 10 subunit alpha (Homo sapiens, UniProt Q9Y5Y9); assay: Inhibition of human Nav1.8 channel expressed in human HEK293 cells by patch clamp method; type: cell-based
T1 sequence (Q9Y5Y9 whole entry): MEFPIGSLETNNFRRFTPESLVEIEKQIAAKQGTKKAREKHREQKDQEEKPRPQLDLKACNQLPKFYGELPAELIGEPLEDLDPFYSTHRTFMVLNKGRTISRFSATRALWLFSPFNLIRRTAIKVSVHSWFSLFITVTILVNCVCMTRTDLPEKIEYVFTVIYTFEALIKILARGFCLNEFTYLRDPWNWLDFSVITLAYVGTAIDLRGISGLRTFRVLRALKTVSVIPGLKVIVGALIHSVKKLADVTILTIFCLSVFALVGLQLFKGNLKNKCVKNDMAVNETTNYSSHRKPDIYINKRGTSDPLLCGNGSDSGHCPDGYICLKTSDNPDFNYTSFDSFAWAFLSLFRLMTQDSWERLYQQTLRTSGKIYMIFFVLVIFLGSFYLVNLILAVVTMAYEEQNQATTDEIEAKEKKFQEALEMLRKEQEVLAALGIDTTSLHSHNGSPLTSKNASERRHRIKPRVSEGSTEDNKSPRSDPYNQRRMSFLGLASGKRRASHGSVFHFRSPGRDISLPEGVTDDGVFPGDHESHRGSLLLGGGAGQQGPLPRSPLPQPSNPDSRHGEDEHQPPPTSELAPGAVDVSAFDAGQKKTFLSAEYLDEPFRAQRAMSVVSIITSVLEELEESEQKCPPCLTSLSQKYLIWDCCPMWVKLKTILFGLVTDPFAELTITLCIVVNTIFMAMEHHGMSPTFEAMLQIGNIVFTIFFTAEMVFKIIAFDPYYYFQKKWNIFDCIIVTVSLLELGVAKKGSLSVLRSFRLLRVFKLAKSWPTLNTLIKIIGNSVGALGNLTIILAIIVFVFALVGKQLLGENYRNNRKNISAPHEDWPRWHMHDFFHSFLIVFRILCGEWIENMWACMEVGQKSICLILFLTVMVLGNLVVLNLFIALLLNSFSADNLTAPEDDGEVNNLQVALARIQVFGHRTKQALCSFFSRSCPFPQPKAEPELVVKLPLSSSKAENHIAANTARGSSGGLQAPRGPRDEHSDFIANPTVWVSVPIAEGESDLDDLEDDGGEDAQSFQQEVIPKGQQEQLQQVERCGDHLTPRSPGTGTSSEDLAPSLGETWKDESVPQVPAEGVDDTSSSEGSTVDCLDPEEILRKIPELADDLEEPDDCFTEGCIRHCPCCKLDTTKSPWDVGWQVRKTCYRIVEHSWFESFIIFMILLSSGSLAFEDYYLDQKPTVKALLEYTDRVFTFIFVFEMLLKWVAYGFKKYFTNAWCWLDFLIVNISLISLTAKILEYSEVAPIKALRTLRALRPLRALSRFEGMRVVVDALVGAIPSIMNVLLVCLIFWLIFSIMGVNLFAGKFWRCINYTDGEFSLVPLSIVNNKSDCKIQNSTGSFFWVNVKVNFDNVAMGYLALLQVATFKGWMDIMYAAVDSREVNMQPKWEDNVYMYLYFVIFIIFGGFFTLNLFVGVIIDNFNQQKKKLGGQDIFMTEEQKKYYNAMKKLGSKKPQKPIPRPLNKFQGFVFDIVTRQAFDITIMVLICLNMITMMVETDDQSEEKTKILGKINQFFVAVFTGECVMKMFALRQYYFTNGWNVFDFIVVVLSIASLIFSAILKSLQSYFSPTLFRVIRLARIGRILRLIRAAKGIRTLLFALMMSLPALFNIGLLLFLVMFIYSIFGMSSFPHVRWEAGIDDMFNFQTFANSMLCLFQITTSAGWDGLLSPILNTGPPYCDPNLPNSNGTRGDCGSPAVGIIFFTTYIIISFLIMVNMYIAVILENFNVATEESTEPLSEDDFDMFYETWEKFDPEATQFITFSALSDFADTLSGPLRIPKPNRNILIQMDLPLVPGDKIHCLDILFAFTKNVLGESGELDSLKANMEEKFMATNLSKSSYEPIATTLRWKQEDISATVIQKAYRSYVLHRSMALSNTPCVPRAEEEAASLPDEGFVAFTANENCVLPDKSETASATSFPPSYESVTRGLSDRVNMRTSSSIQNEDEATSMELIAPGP

Adenosine receptor A3 = Adenosine receptor A3 (Homo sapiens, UniProt P0DMS8); assay: Displacement of [125I]AB-MECA from adenosine A3 receptor
Sequence of Adenosine receptor A3 (P0DMS8 whole entry): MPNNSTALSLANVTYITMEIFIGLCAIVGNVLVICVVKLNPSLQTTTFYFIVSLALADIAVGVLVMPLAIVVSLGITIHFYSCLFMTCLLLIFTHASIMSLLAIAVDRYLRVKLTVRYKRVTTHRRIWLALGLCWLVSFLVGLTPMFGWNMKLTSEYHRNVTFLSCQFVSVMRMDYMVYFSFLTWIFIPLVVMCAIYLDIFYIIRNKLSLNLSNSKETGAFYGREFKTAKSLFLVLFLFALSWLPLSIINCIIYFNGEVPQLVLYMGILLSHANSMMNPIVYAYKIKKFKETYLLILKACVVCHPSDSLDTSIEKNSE

Rattus norvegicus [10] = assay: Analgesic activity in ip dosed rat L5/L6 spinal nerve ligation-induced neuropathic pain model; type: functional
[11] = Drug level in rat plasma at 10 to 100 mg/kg, ip after 45 mins; type: ADME, organism-based; design: dose 10-100 mg/kg, route intraperitoneal
[12] = biological target: 5-hydroxytryptamine receptor 2C (Homo sapiens, UniProt P28335); assay: Displacement of [3H]mesulergine from 5HT2C receptor
Sequence of 5-hydroxytryptamine receptor 2C (P28335 whole entry): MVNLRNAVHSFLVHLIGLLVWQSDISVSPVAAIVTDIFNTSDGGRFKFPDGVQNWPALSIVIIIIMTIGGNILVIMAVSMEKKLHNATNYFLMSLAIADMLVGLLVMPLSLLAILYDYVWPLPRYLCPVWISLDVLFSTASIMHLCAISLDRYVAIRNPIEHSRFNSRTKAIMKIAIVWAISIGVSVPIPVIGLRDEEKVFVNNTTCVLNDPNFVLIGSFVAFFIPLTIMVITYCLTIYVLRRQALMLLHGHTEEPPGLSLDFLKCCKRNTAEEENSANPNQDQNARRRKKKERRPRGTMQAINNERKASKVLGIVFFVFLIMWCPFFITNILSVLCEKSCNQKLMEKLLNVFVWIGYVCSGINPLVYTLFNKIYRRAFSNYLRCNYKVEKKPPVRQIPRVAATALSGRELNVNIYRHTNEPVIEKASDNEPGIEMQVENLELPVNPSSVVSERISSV

[13] = biological target: Alpha-2A adrenergic receptor (Homo sapiens, UniProt P08913); assay: Displacement of [3H]RX821002 from adrenergic alpha-2 receptor
Rattus norvegicus [14] = assay: Analgesic activity in ip dosed rat complete Freund's adjuvant-induced thermal hyperalgesia model assessed as paw withdrawal latency after 2 days; type: functional; conditions: 48 h
[15] = biological target: Sodium channel protein type 10 subunit alpha (Rattus norvegicus, UniProt Q62968); assay: Inhibition of recombinant rat Nav1.8 sodium channel assessed as blockade of TTXR current by patch clamp method
[16] = Tmax in rat at 10 mg/kg, ip; type: ADME, organism-based; design: dose 10 mg/kg, route intraperitoneal; conditions: in vivo
[17] = Clearance in rat plasma; type: ADME, organism-based
Rattus norvegicus [18] = assay: Analgesic activity in rat vincristine-induced mechanical allodynic neuropathic pain at 100 mg/kg, ip; type: functional; conditions: route intraperitoneal
Rattus norvegicus [19] = assay: Analgesic activity in ip dosed rat complete Freund's adjuvant-induced mechanical hyperalgesia model assessed as paw withdrawal latency after 4 days; type: functional; conditions: 96 h
Rattus norvegicus [20] = assay: Analgesic activity in ip dosed rat acute thermal stimulation nociception model assessed as paw withdrawal latency; type: functional
[21] = Displacement of [125I]TNFalpha from TNFalpha receptor
[22] = biological target: Muscarinic acetylcholine receptor M1 (Homo sapiens, UniProt P11229); assay: Displacement of [3H]pirezepine from muscarinic M1 receptor
[23] = biological target: Potassium voltage-gated channel subfamily KQT member 2 (Homo sapiens, UniProt O43526); assay: Inhibition of KCNQ2 channel
Sequence of Potassium voltage-gated channel subfamily KQT member 2 (O43526 whole entry): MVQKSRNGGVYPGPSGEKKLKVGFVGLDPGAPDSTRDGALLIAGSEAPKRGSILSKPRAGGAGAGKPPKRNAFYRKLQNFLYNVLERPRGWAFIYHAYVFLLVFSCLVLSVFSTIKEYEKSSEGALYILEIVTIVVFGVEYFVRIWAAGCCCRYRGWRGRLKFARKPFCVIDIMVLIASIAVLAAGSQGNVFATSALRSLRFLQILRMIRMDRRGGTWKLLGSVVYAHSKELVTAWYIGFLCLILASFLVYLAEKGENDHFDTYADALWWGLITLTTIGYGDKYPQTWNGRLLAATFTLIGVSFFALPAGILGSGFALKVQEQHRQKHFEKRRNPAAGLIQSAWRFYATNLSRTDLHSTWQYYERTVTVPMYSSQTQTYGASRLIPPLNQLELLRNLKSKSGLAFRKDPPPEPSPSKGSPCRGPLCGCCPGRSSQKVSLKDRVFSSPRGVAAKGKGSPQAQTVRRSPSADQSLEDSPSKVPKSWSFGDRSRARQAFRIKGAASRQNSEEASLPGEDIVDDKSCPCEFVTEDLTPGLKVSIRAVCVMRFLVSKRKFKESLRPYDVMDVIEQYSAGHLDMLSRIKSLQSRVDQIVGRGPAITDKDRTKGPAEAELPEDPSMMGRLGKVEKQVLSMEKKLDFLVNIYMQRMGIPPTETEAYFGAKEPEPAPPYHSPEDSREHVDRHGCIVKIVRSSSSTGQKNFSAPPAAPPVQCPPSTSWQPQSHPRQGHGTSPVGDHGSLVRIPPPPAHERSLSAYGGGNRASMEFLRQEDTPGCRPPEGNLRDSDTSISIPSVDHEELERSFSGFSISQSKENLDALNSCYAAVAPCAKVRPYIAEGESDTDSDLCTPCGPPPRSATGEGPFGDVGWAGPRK

DRG neuron = assay: Suppression of evoked action potential firing in rat DRG neurons at 0.3 uM; type: functional, cell-based
Rattus norvegicus [24] = assay: Analgesic activity in rat complete Freund's adjuvant-induced mechanical hyperalgesia model assessed as paw withdrawal latency at 100 mg/kg, ip after 2 days; type: functional; conditions: route intraperitoneal
Rattus norvegicus [25] = assay: Analgesic activity in rat formalin flinching inflammatory pain model at 300 mg/kg, ip; type: functional; conditions: route intraperitoneal
[26] = Protein binding in rat plasma; type: ADME, cell-free; conditions: read-out: PPB (converted)
Rattus norvegicus [27] = assay: Motor effect in rat assessed as locomotory activity at 300 mg/kg, ip; type: functional; conditions: route intraperitoneal
Rattus norvegicus [28] = assay: Motor effect in rat by rotarod test at 300 mg/kg, ip; type: functional; conditions: route intraperitoneal
D(1A) dopamine receptor = D(1A) dopamine receptor (Homo sapiens, UniProt P21728); assay: Displacement of [3H]SCH-23390 from dopamine D1 receptor
Cannabinoid receptor 2 = Cannabinoid receptor 2 (Homo sapiens, UniProt P34972); assay: Displacement of [3H]Win 55212-2 from cannabinoid CB2 receptor
[29] = biological target: 5-hydroxytryptamine receptor 6 (Homo sapiens, UniProt P50406); assay: Displacement of [3H]LSD from 5HT6 receptor
[30] = biological target: Sodium channel protein type 5 subunit alpha (Homo sapiens, UniProt Q14524); assay: Inhibition of human Nav1.5 channel expressed in HEK293 cells at -150 mV by patch clamp method; type: cell-based
Rattus norvegicus [31] = assay: Analgesic activity in ip dosed rat chronic constriction injury model of cold allodynic neuropathic pain; type: functional
Rattus norvegicus [32] = species: Rattus norvegicus; assay: Analgesic activity in rat spinal nerve ligation model at 200 to 300 nM; type: functional
[33] = Cmax in rat at 10 mg/kg, ip; type: ADME, organism-based; design: dose 10 mg/kg, route intraperitoneal; conditions: in vivo
[34] = biological target: T1, Sodium channel protein type 10 subunit alpha; assay: Inhibition of human Nav1.8 channel expressed in HEK293 cells at -40 mV by patch clamp method; type: cell-based
[35] = biological target: Muscarinic acetylcholine receptor M5 (Homo sapiens, UniProt P08912); assay: Displacement of [3H]4DAMP from muscarinic M5 receptor
Rattus norvegicus [36] = assay: Analgesic activity in ip dosed rat formalin flinching inflammatory pain model; type: functional
Rattus norvegicus [37] = assay: Analgesic activity in rat complete Freund's adjuvant-induced thermal hyperalgesia model assessed as paw withdrawal latency at 100 mg/kg, ip after 2 days; type: functional; conditions: route intraperitoneal
[38] = biological target: T1, Sodium channel protein type 10 subunit alpha; assay: Inhibition of human Nav1.8 channel expressed in HEK293 cells at -100 mV by patch clamp method; type: cell-based
Rattus norvegicus [39] = assay: Analgesic activity in ip dosed rat chronic constriction injury model of mechanical allodynia; type: functional
P2Y purinoceptor 2 = P2Y purinoceptor 2 (Homo sapiens, UniProt P41231); assay: Displacement of [35S]dATP-alpha-S from P2Y receptor
[40] = biological target: Beta-2 adrenergic receptor (Homo sapiens, UniProt P07550); assay: Displacement of [3H](-)CGP-12177 from adrenergic beta2 receptor
Sequence of Beta-2 adrenergic receptor (P07550 whole entry, looked up): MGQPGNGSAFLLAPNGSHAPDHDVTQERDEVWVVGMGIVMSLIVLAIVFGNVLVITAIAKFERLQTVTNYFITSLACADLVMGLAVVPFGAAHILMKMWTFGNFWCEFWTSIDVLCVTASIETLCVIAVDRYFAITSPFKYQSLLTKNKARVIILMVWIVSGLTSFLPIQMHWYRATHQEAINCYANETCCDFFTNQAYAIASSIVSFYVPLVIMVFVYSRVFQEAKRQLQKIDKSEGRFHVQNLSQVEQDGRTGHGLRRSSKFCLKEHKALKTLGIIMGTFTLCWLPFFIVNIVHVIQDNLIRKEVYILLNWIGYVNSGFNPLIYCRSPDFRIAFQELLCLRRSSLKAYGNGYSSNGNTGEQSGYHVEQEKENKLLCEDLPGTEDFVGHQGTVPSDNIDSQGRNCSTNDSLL

ADRB1 = ADRB1 (Homo sapiens, UniProt P08588); assay: Displacement of [3H](-)CGP-12177 from adrenergic beta-1 receptor
Rattus norvegicus [41] = assay: Analgesic activity in ip dosed rat vincristine-induced mechanical allodynic neuropathic pain; type: functional
[42] = Displacement of [3H]prazosin from adrenergic alpha-1 receptor
Adenosine receptor A1 = Adenosine receptor A1 (Homo sapiens, UniProt P30542); assay: Displacement of [3H]DPCPX from adenosine A1 receptor
Histamine H1 receptor = Histamine H1 receptor (Homo sapiens, UniProt P35367); assay: Displacement of [3H]pyrilamine from histamine H1 receptor
Rattus norvegicus [43] = species: Rattus norvegicus; assay: Motor effect in rat by rotarod test; type: functional
Rattus norvegicus [44] = assay: Analgesic activity in ip dosed rat colonic distension model; type: functional
[45] = biological target: 5-hydroxytryptamine receptor 2A (Homo sapiens, UniProt P28223); assay: Displacement of [3H]ketanserin from 5HT2A receptor
Sequence of 5-hydroxytryptamine receptor 2A (P28223 whole entry): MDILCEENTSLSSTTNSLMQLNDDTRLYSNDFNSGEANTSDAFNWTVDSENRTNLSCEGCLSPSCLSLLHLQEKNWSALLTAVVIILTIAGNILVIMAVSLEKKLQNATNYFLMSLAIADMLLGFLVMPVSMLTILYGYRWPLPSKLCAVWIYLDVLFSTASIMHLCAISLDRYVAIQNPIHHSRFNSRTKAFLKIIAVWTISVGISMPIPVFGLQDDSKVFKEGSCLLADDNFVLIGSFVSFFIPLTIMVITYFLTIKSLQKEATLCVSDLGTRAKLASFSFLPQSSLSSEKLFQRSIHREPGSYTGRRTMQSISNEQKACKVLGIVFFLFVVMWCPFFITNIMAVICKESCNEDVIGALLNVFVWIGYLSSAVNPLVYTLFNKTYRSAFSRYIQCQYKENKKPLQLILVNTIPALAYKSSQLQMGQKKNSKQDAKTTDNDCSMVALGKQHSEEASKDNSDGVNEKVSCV

P2X purinoceptor 2 = P2X purinoceptor 2 (Homo sapiens, UniProt Q9UBL9); assay: Inhibition of P2X2 receptor

COc1cc(NC(=O)c2ccc(-c3ccc(Cl)cc3)o2)cc(OC)c1
Activity (Rattus norvegicus [1]): 61% | IC50 [2]: > 10 µM | IC50 [3]: > 10 µM | IC50 [4]: > 10 µM | IC50 [5]: > 10 µM | Activity (Rattus norvegicus [6]): 70% | Cmax [7]: 190 ng/mL | IC50 [8]: > 10 µM | IC50 [9]: 0.008 µM | IC50 (Adenosine receptor A3): 12 µM | ED50 (Rattus norvegicus [10]): 47 mg/kg | concentration at 0.75 h [11]: 400 ng/mL | IC50 [12]: > 10 µM | IC50 [13]: > 10 µM | ED50 (Rattus norvegicus [14]): 100 mg/kg | IC50 [15]: 0.045 µM | Tmax [16]: 1.6 h | clearance [17]: 25 mL/min/kg | Activity (Rattus norvegicus [18]): 9% | ED50 (Rattus norvegicus [19]): > 100 mg/kg | ED50 (Rattus norvegicus [20]): > 100 mg/kg | IC50 [21]: > 10 µM | IC50 [22]: > 10 µM | IC50 [23]: > 10 µM | Activity (DRG neuron): Active | Activity (Rattus norvegicus [24]): 34% | Activity (Rattus norvegicus [25]): 9% | fraction unbound [26]: 0.013 | Activity (Rattus norvegicus [27]): 12% | Activity (Rattus norvegicus [28]): 0% | IC50 (D(1A) dopamine receptor): 7 µM | IC50 (Cannabinoid receptor 2): > 10 µM | IC50 [29]: > 10 µM | IC50 [30]: 32.8 µM | ED50 (Rattus norvegicus [31]): 70 mg/kg | Activity (Rattus norvegicus [32]): >70% | Cmax [33]: 350 ng/mL | IC50 [34]: 0.008 µM | IC50 [35]: > 10 µM | ED50 (Rattus norvegicus [36]): > 100 mg/kg | Activity (Rattus norvegicus [37]): 64% | IC50 [38]: 0.079 µM | ED50 (Rattus norvegicus [39]): 85 mg/kg | IC50 (P2Y purinoceptor 2): > 10 µM | IC50 [40]: > 10 µM | IC50 (ADRB1): > 10 µM | ED50 (Rattus norvegicus [41]): > 100 mg/kg | IC50 [42]: > 10 µM | IC50 (Adenosine receptor A1): > 10 µM | IC50 (Histamine H1 receptor): > 10 µM | ED50 (Rattus norvegicus [43]): > 300 mg/kg | ED50 (Rattus norvegicus [44]): > 100 mg/kg | IC50 [45]: 3 µM | IC50 (P2X purinoceptor 2): > 10 µM
